#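 Dose response: 5 concentrations. Exposure: 48 h. Format: 96-well plates. Endpoint: linear interpolation; highest concentration if not reached. The concentration for 50% growth inhibition is given as GI50.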 Calls of active or inactive are those of the source. Rule as the data show it: active = GI50 up to about 1.1 µM and inactive = higher.
# Experiments:
# Test in all cases: growth of human tumour cells (NCI), 48 h
# CAKI-1 = test system: CAKI-1
# EKVX = test system: EKVX
# HCT-15 = test system: HCT-15
# HOP-62 = test system: HOP-62
# HOP-92 = test system: HOP-92
# Hs-578T = test system: Hs-578T
# IGROV-1 = test system: IGROV-1
# K562 = test system: K562
# MDA-N = test system: MDA-N
# NCI-H23 = test system: NCI-H23
# NCI-H522 = test system: NCI-H522
# NCI/ADR-RES = test system: NCI/ADR-RES
# OVCAR-5 = test system: OVCAR-5
# SF-268 = test system: SF-268
# SF-539 = test system: SF-539
# SK-MEL-28 = test system: SK-MEL-28
# SNB-19 = test system: SNB-19
# UACC-257 = test system: UACC-257
# UO-31 = test system: UO-31
# SR = test system: SR
Compound,GI50 (CAKI-1),GI50 (EKVX),GI50 (HCT-15),GI50 (HOP-62),GI50 (HOP-92),GI50 (Hs-578T),GI50 (IGROV-1),GI50 (K562),GI50 (MDA-N),GI50 (NCI-H23),GI50 (NCI-H522),GI50 (NCI/ADR-RES),GI50 (OVCAR-5),GI50 (SF-268),GI50 (SF-539),GI50 (SK-MEL-28),GI50 (SNB-19),GI50 (UACC-257),GI50 (UO-31),GI50 (SR)
Clc1ccc(Nc2nnc(CNc3ccc(-c4nnc(Nc5ccc(Cl)cc5)o4)cc3)o2)cc1,17.9 µM (inactive),22.3 µM (inactive),14.9 µM,18.9 µM (inactive),23.9 µM (inactive),17.8 µM (inactive),14.1 µM (inactive),0.504 µM (active),14.3 µM (inactive),15.9 µM (inactive),16 µM (inactive),29.7 µM (inactive),19.6 µM (inactive),21.2 µM (inactive),18.6 µM (inactive),17.2 µM (inactive),18.7 µM (inactive),20.3 µM (inactive),14.5 µM (inactive),–
Clc1ccccc1-c1nnc2c(-c3ccccc3)nc3ccccc3n12,–,> 100 µM (inactive),> 100 µM,69.3 µM (inactive),> 100 µM (inactive),–,> 100 µM (inactive),> 100 µM (inactive),96.6 µM (inactive),> 100 µM (inactive),–,> 100 µM (inactive),> 100 µM (inactive),> 100 µM (inactive),> 100 µM (inactive),> 100 µM (inactive),> 100 µM (inactive),> 100 µM (inactive),2.07 µM (inactive),45.2 µM (inactive)
O=c1c2ccc(Cl)cc2oc2c(CNc3ccc(S(=O)(=O)Nc4ncccn4)cc3)cccc12,> 100 µM (inactive),> 100 µM (inactive),> 100 µM,90.8 µM (inactive),> 100 µM (inactive),–,> 100 µM (inactive),> 100 µM (inactive),> 100 µM (inactive),> 100 µM (inactive),> 100 µM (inactive),> 100 µM (inactive),> 100 µM (inactive),–,94.4 µM (inactive),> 100 µM (inactive),> 100 µM (inactive),> 100 µM (inactive),> 100 µM (inactive),> 100 µM (inactive)
O=C(O)CC(Cc1ccccc1)C(=O)O (stereo not drawn),> 100 µM (inactive),> 100 µM (inactive),> 100 µM,> 100 µM (inactive),–,50.5 µM (inactive),> 100 µM (inactive),> 100 µM (inactive),56.5 µM (inactive),> 100 µM (inactive),> 100 µM (inactive),> 100 µM (inactive),> 100 µM (inactive),> 100 µM (inactive),> 100 µM (inactive),> 100 µM (inactive),> 100 µM (inactive),> 100 µM (inactive),> 100 µM (inactive),–
CCOC(=O)C(C)(C)Oc1ccc(Cl)cc1 [CLOFIBRATE],> 1000 µM (inactive),201 µM (inactive),435 µM,> 1000 µM (inactive),177 µM (inactive),208 µM (inactive),461 µM (inactive),> 1000 µM (inactive),566 µM (inactive),303 µM (inactive),435 µM (inactive),285 µM (inactive),446 µM (inactive),650 µM (inactive),366 µM (inactive),489 µM (inactive),> 1000 µM (inactive),177 µM (inactive),726 µM (inactive),–
CCN(CC)CCN1C(=O)c2c(c(-c3ccccc3)c3ccccc3c2-c2ccccc2)C1=O,> 100 µM (inactive),> 100 µM (inactive),> 100 µM,71.1 µM (inactive),36.8 µM (inactive),> 100 µM (inactive),> 100 µM (inactive),> 100 µM (inactive),> 100 µM (inactive),–,> 100 µM (inactive),> 100 µM (inactive),> 100 µM (inactive),> 100 µM (inactive),54.1 µM (inactive),–,46.3 µM (inactive),> 100 µM (inactive),–,–
CN(Cc1cnc2nc(N)nc(N)c2n1)c1ccc(C(=O)NC2CCCCC2)cc1,63.7 µM (inactive),53.6 µM (inactive),20.8 µM,34.5 µM (inactive),–,23.6 µM (inactive),13.3 µM (inactive),7.33 µM (inactive),7.69 µM (inactive),36.1 µM (inactive),–,> 100 µM (inactive),74.3 µM (inactive),19 µM (inactive),13.6 µM (inactive),–,14.9 µM (inactive),21.3 µM (inactive),87.3 µM (inactive),33.2 µM (inactive)
c1cc2c(cc1[C@@H]1OC[C@@H]3[C@H]1CO[C@H]3c1ccc3c(c1)OCO3)OCO2,30.1 µM (inactive),29.7 µM (inactive),> 100 µM,> 100 µM (inactive),69.3 µM (inactive),–,87.1 µM (inactive),46.8 µM (inactive),80.9 µM (inactive),65.9 µM (inactive),> 100 µM (inactive),36.6 µM (inactive),> 100 µM (inactive),> 100 µM (inactive),> 100 µM (inactive),> 100 µM (inactive),> 100 µM (inactive),13.7 µM (inactive),65.8 µM (inactive),–
CCN(CC)C1Oc2cc3c(cc2C(c2cccc(OC)c2OC)C1C)OCO3 (stereo not drawn),2.82 µM (inactive),13.1 µM (inactive),3.93 µM,10.8 µM (inactive),–,3.66 µM (inactive),4.58 µM (inactive),3.05 µM (inactive),8.59 µM (inactive),8.47 µM (inactive),4.13 µM (inactive),–,13 µM (inactive),7.91 µM (inactive),10.2 µM (inactive),14.9 µM (inactive),8.07 µM (inactive),3.95 µM (inactive),4.21 µM (inactive),0.729 µM (active)
CCOn1c(C2(CC3CCN(C(=O)c4ccccc4)CC3)OCCO2)cc2ccccc21,15.4 µM (inactive),20.8 µM (inactive),22.5 µM,15.1 µM (inactive),10.9 µM (inactive),–,15 µM (inactive),11.4 µM (inactive),16.5 µM (inactive),19.5 µM (inactive),19.3 µM (inactive),16.9 µM (inactive),19 µM (inactive),19.3 µM (inactive),18.7 µM (inactive),13.2 µM (inactive),16.7 µM (inactive),11.1 µM (inactive),14 µM (inactive),6.27 µM (inactive)
O=C(O)CC1OCC=C2CN3CCC45C6=CC(=O)C(O)=C([N+](=O)[O-])C6=NC4C1C2CC35 (stereo not drawn),> 100 µM (inactive),> 100 µM (inactive),> 100 µM,> 100 µM (inactive),> 100 µM (inactive),> 100 µM (inactive),> 100 µM (inactive),92.3 µM (inactive),44.7 µM (inactive),> 100 µM (inactive),> 100 µM (inactive),> 100 µM (inactive),> 100 µM (inactive),> 100 µM (inactive),> 100 µM (inactive),> 100 µM (inactive),> 100 µM (inactive),> 100 µM (inactive),> 100 µM (inactive),–
